In publication PMC8765320, “Identification of a Proteasome-Targeting Arylsulfonamide with Potential for the Treatment of Chagas’ Disease” (Antimicrobial Agents and Chemotherapy, 2022):
Like-named read-outs stand apart in the source and are kept apart here.

Assays:
[1] = system: T. cruzi malic enzyme (cTcME); experiment: Malic enzyme assay in clarified epimastigote lysates (NADPH production, 340 nm); format: biochemical, Trypanosoma cruzi
Description: Malic enzyme (ME) catalyzes the oxidative decarboxylation of malate to pyruvate with the concomitant reduction of NAD(P)^+ to NAD(P)H. In light of our TPP studies, we next sought to determine whether the binding of compound 1 to cTcME inhibits enzymatic activity. The ME-dependent production of NADPH was monitored in clarified lysates of T. cruzi epimastigotes at 340 nm after the addition of malate. In the first instance, this assay was validated using ATR-073, an established inhibitor of cTcME ([27]). […] Similarly, preincubation of lysates with 20 μM and 1 μM concentrations of compound 1 inhibited ME activity by 96 and 68%, respectively (Fig. 4C). […] It should be noted that ATR-073 and compound 1 are structurally similar, both being substituted N-phenyl aryl sulfonamides, this common moiety constituting the pharmacophore of this chemical series.
Logarithmic T. cruzi epimastigotes were harvested (1,690 × g, 10 min, 4°C), washed once in ice-cold phosphate-buffered saline, and resuspended at 2 × 10^9 cells ml^−1 in lysis buffer (10 mM phosphate buffer [pH 7.2], 10 mM EDTA, 5 mM benzamidine, 5 mM phenanthroline, 0.1 mM phenylmethylsulfonyl fluoride) containing 1 mg ml^−1 digitonin, followed by incubation at 28°C for 10 min. The resulting lysate was then centrifuged (13,000 × g, 10 min, 4°C), and the supernatant was harvested and stored on ice. The protein concentration of this clarified lysate was determined by using a standard Bio-Rad protein assay.
The activity of malic enzyme was assayed as previously described ([42]), with minor modifications. T. cruzi clarified lysate (30 μl) was added to a reaction mixture (500 μl final volume) containing 50 mM Tris-HCl buffer (pH 7.6), 1 mM MnCl2, and 0.12 mM NADP^+. Reactions were initiated by the addition of 5 mM L-malate. The reduction of NADP^+ was monitored at 340 nm using a UV-2401 spectrophotometer (Shimadzu). To monitor the effect of test compounds on the activity of malic enzyme, compounds (1 and 20 μM) were preincubated for 10 min with the lysate in the reaction mixture. DMSO (0.2%) was used as control. All enzymatic activities were calculated as Δabs min^−1 mg^−1 of protein.

[2] = system: chymotrypsin-like activity of the T. cruzi proteasome; experiment: Proteasome chymotrypsin-like activity luminescence assay; format: biochemical, Trypanosoma cruzi; conditions: at concentrations up to and including 3.3 μM
Procedure: Initially, the impact of compound 1 on the chymotrypsin-like proteolytic activity of the proteasome was assessed using a commercially available indirect enzyme-based luminescent assay. In this assay, activity is monitored in proteasome-enriched T. cruzi epimastigote lysates using Suc-LLVY-aminoluciferin as a substrate ([16]). […] Thus, an alternative route to determine the impact of this arylsulfonamide compound on T. cruzi proteasome function was required.
The effect of inhibitors on the chymotrypsin-like activity of the T. cruzi proteasome was assessed by using a luminescence-based assay, as previously described ([21]).

T. cruzi epimastigotes = experiment: T. cruzi epimastigote drug sensitivity assay (resazurin); format: cell-based, Trypanosoma cruzi; conditions: Trypanosoma cruzi
Procedure: To examine the effects of test compounds on the growth of T. cruzi epimastigotes, mid-log-phase parasites were seeded into 96-well plates at a cell density of 5 × 10^5 cells ml^−1. Cells were exposed to test compounds over a range of concentrations (2-fold serial dilutions). Cells were incubated for 4 days, and then 20 μl of 2.5 mM resazurin was added to each well, before measuring the fluorescence (excitation, 528 nm; emission, 590 nm), following a further 24 h of incubation. […] In this equation, [I] represents the inhibitor concentration, and m is the slope factor. Experiments were repeated at least two times, and the data are presented as means plus the standard deviations.

Question: `CCC(C)NC(=O)c1ccccc1NS(=O)(=O)c1ccc2ccccc2c1` (stereo not shown) [ATR-073] was tested. Which “reduction in ME activity” value ([1]; preincubation of lysates with 1 μM) did it give?
Answer: 63%

Question: What about the “reduction in ME activity” value ([1]; preincubation of lysates with 20 μM) of the same molecule?
Answer: 96%

Question: And the “effect on the chymotrypsin-like activity of the proteasome” value [2]?
Answer: no effect

Question: And the EC50 (T. cruzi epimastigotes; WT, Fig. S3B, one biological replicate)?
Answer: 49 ± 29 µM

Question: And the EC50 (T. cruzi epimastigotes; compound 2-Res V cells (so in the source), Fig. S3B, one biological replicate, read-out: EC50)?
Answer: 51 ± 18 µM

Question: And the EC50 (T. cruzi epimastigotes; epimastigotes, cell line Wild-type, weighted mean, n ≥ 3, read-out: ATR-073 EC50 values)?
Answer: 34 ± 1 µM

Question: And the EC50 (T. cruzi epimastigotes; epimastigotes, cell line cTcME OE, weighted mean, n ≥ 3, read-out: ATR-073 EC50 values)?
Answer: 32 ± 2 µM
